This passage reports EC50 results from patent publication US10858356B2, “Pyrazolopyridine derivative having GLP-1 receptor agonist effect” (Chugai Seiyaku Kabushiki Kaisha, priority 2016, dated 2020).

The EC50 is the concentration that produces a half-maximal response.

Chain of human GLP1R (P43220 24-463): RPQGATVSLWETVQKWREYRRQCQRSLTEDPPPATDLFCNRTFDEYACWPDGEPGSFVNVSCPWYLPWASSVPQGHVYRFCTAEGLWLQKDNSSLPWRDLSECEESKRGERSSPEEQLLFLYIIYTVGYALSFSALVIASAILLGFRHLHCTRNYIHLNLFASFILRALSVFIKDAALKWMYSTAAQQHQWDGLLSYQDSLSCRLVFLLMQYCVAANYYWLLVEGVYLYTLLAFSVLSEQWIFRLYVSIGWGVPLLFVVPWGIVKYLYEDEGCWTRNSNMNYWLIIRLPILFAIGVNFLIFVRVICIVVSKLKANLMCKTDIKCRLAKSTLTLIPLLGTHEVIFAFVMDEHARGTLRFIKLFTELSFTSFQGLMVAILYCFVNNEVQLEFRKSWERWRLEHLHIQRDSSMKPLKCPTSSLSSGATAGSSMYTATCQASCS

This test has as its target human GLP1R (Homo sapiens (Human), UniProt P43220). Kind of test: In vitro cAMP signal activation in human GLP1R stably-expressing cell line (hGLP1R-HEK293). It counts as cell-based. Conditions: cAMP concentration in hGLP1R-HEK293; 100% = 1 nM human GLP-1 (7-37). How it is done:
<Test Example 1> Measurement of In Vitro cAMP Signal Activation of a Compound in Human GLP1R
A human GLP1R stably-expressing cell line (hGLP1R-HEK293) was used in the experiment. The cells were cultured in a Dulbecco's modified Eagle's medium (DMEM) containing 10% fetal bovine serum (Sigma-Aldrich), 100 units/mL penicillin G and 100 μg/mL streptomycin sulfate (Gibco), and 500 μg/mL Geneticin (Gibco), under a moist atmosphere containing 5% CO2, at 37° C.
hGLP1R-HEK293 was seeded in 96 well plates at 2.0×10^4 cells per well and cultured over night. The medium for culturing the cells was changed to 50 μL of Medium A (DMEM, 20 mM HEPES, 0.05% BSA, 0.5 mM 3-isobutyl-1-methylxanthine) the next day, and the cells were incubated at 37° C. for 30 min. Then, 50 μL of Medium B (DMEM, 20 mM HEPES, 0.05% BSA, 0.5 mM 3-isobutyl-1-methylxanthine) containing GLP-1 or the compound was added, and the cells were incubated at 37° C. for an additional 30 min. Then, 100 μL of Assay lysis buffer (Applied Bioscience) was added, and the cells were incubated at 37° C. for 30 min. The cAMP concentration was quantified using cAMP HiRange kit (Cisbio Bioassays).
By setting the cAMP concentration when the human GLP-1 (7-37) was put into action at a concentration of 1 nM to 100%, the cAMP concentration of each well was converted to a reaction rate (%).
`Cc1cc(-n2nc3c(c2-n2ccn(-c4ccc5c(cnn5[C@H]5CCOC5)c4)c2=O)[C@H](C)N(C(=O)c2cc4cc(-c5ccnc(C)c5F)ccc4n2[C@@]2(c4noc(=O)[nH]4)C[C@@H]2C)CC3)cc(C)c1F` [Example 14, 3-[(1S,2S)-1-[2-[(4S)-2-(4-fluoro-3,5-dimethylphenyl)-4-methyl-3-[2-oxo-3-[1-[(3S)-oxolan-3-yl]indazol-5-yl]imidazol-1-yl]-6,7-dihydro-4H-pyrazolo[4,3-c]pyridine-5-carbonyl]-5-(3-fluoro-2-methylpyridin-4-yl)indol-1-yl]-2-methylcyclopropyl]-4H-1,2,4-oxadiazol-5-one] registered an EC50 of 2.3 nM.

As to `Cc1cc(-n2nc3c(c2-n2ccn(-c4ccc5c(cnn5C)c4)c2=O)[C@H](C)N(C(=O)c2cc4cc(-c5ccnc(N(C)C)c5C)ccc4n2[C@@]2(c4noc(=O)[nH]4)C[C@@H]2C)CC3)cc(C)c1F` [Example 15, 3-[(1S,2S)-1-[5-[2-(dimethylamino)-3-methylpyridin-4-yl]-2-[(4S)-2-(4-fluoro-3,5-dimethylphenyl)-4-methyl-3-[3-(1-methylindazol-5-yl)-2-oxoimidazol-1-yl]-6,7-dihydro-4H-pyrazolo[4,3-c]pyridine-5-carbonyl]indol-1-yl]-2-methylcyclopropyl]-4H-1,2,4-oxadiazol-5-one], the EC50 is 2.2 nM. This EC50 and that of the compound before are within 1.5-fold of each other.

For the compound `COCCn1ncc2cc(-n3ccn(-c4c5c(nn4-c4cc(C)c(F)c(C)c4)CCN(C(=O)c4cc6cc(C7CCOCC7)ccc6n4[C@@]4(c6noc(=O)[nH]6)C[C@@H]4C)[C@H]5C)c3=O)ccc21` [Example 16, 3-[(1S,2S)-1-[2-[(4S)-2-(4-fluoro-3,5-dimethylphenyl)-3-[3-[1-(2-methoxyethyl)indazol-5-yl]-2-oxoimidazol-1-yl]-4-methyl-6,7-dihydro-4H-pyrazolo[4,3-c]pyridine-5-carbonyl]-5-(oxan-4-yl)indol-1-yl]-2-methylcyclopropyl]-4H-1,2,4-oxadiazol-5-one], the concentration for a half-maximal effect (EC50) is 0.51 nM. This EC50 lies about 4.3-fold lower than the previous one.

Compound `Cc1cc(-n2nc3c(c2-n2ccn(-c4ccc5c(cnn5CC5(C)COC5)c4)c2=O)[C@H](C)N(C(=O)c2cc4cc(C5CCOCC5)ccc4n2[C@@]2(c4noc(=O)[nH]4)C[C@@H]2C)CC3)cc(C)c1F` [Example 17, 3-[(1S,2S)-1-[2-[(4S)-2-(4-fluoro-3,5-dimethylphenyl)-4-methyl-3-[3-[1-[(3-methyloxetan-3-yl)methyl]indazol-5-yl]-2-oxoimidazol-1-yl]-6,7-dihydro-4H-pyrazolo[4,3-c]pyridine-5-carbonyl]-5-(oxan-4-yl)indol-1-yl]-2-methylcyclopropyl]-4H-1,2,4-oxadiazol-5-one] registered an EC50 of 1 nM.

Turning to `Cc1cc(-n2nc3c(c2-n2ccn(-c4ccc5c(C)nsc5c4)c2=O)[C@H](C)N(C(=O)c2cc4cc(C5CCOCC5)ccc4n2[C@@]2(c4noc(=O)[nH]4)C[C@@H]2C)CC3)cc(C)c1F` [Example 18, 3-[(1S,2S)-1-[2-[(4S)-2-(4-fluoro-3,5-dimethylphenyl)-4-methyl-3-[3-(3-methyl-1,2-benzothiazol-6-yl)-2-oxoimidazol-1-yl]-6,7-dihydro-4H-pyrazolo[4,3-c]pyridine-5-carbonyl]-5-(oxan-4-yl)indol-1-yl]-2-methylcyclopropyl]-4H-1,2,4-oxadiazol-5-one], the EC50 stood at 1.3 nM.

Regarding `Cc1cc(-n2ccn(-c3c4c(nn3-c3cc(C)c(F)c(C)c3)CCN(C(=O)c3cc5cc(C6CCOCC6)ccc5n3[C@@]3(c5noc(=O)[nH]5)C[C@@H]3C)[C@H]4C)c2=O)ccc1OCCO` [Example 19, 3-[(1S,2S)-1-[2-[(4S)-2-(4-fluoro-3,5-dimethylphenyl)-3-[3-[4-(2-hydroxyethoxy)-3-methylphenyl]-2-oxoimidazol-1-yl]-4-methyl-6,7-dihydro-4H-pyrazolo[4,3-c]pyridine-5-carbonyl]-5-(oxan-4-yl)indol-1-yl]-2-methylcyclopropyl]-4H-1,2,4-oxadiazol-5-one], it took 1.3 nM to reach a half-maximal effect (EC50). This lies in the single-digit nanomolar range.

Compound `COc1cc(-n2ccn(-c3c4c(nn3-c3cc(C)c(F)c(C)c3)CCN(C(=O)c3cc5cc(C6CCOCC6)ccc5n3[C@@]3(c5noc(=O)[nH]5)C[C@@H]3C)[C@H]4C)c2=O)ccc1OC(C)(C)CO` [Example 20, 3-[(1S,2S)-1-[2-[(4S)-2-(4-fluoro-3,5-dimethylphenyl)-3-[3-[4-(1-hydroxy-2-methylpropan-2-yl)oxy-3-methoxyphenyl]-2-oxoimidazol-1-yl]-4-methyl-6,7-dihydro-4H-pyrazolo[4,3-c]pyridine-5-carbonyl]-5-(oxan-4-yl)indol-1-yl]-2-methylcyclopropyl]-4H-1,2,4-oxadiazol-5-one] showed an EC50 of 1.9 nM.

Compound `Cc1cc(-n2nc3c(c2-n2ccn(-c4ccc5c(cnn5[C@H]5CCOC5)c4)c2=O)[C@H](C)N(C(=O)c2cc4cc(C5CCOCC5)ccc4n2[C@@]2(c4noc(=O)[nH]4)C[C@@H]2C)CC3)cc(C)c1F` [Example 22, 3-[(1S,2S)-1-[2-[(4S)-2-(4-fluoro-3,5-dimethylphenyl)-4-methyl-3-[2-oxo-3-[1-[(3S)-oxolan-3-yl]indazol-5-yl]imidazol-1-yl]-6,7-dihydro-4H-pyrazolo[4,3-c]pyridine-5-carbonyl]-5-(oxan-4-yl)indol-1-yl]-2-methylcyclopropyl]-4H-1,2,4-oxadiazol-5-one] gave an EC50 of 2.3 nM.

The compound `Cc1cc(-n2nc3c(c2-n2ccn(-c4ccc5c(cnn5C)c4F)c2=O)[C@H](C)N(C(=O)c2cc4cc(C5CCOCC5)ccc4n2[C@@]2(c4noc(=O)[nH]4)C[C@@H]2C)CC3)cc(C)c1F` [Example 23, 3-[(1S,2S)-1-[2-[(4S)-2-(4-fluoro-3,5-dimethylphenyl)-3-[3-(4-fluoro-1-methylindazol-5-yl)-2-oxoimidazol-1-yl]-4-methyl-6,7-dihydro-4H-pyrazolo[4,3-c]pyridine-5-carbonyl]-5-(oxan-4-yl)indol-1-yl]-2-methylcyclopropyl]-4H-1,2,4-oxadiazol-5-one] gave an EC50 of 1.8 nM.

For `Cc1cc(-n2nc3c(c2-n2ccn(-c4ccc5c(c4)CCOC5(C)C)c2=O)[C@H](C)N(C(=O)c2cc4cc(C5CCOCC5)ccc4n2[C@@]2(c4noc(=O)[nH]4)C[C@@H]2C)CC3)cc(C)c1F` [Example 24, 3-[(1S,2S)-1-[2-[(4S)-3-[3-(1,1-dimethyl-3,4-dihydroisochromen-6-yl)-2-oxoimidazol-1-yl]-2-(4-fluoro-3,5-dimethylphenyl)-4-methyl-6,7-dihydro-4H-pyrazolo[4,3-c]pyridine-5-carbonyl]-5-(oxan-4-yl)indol-1-yl]-2-methylcyclopropyl]-4H-1,2,4-oxadiazol-5-one], the EC50 is 2.5 nM.

In turn, `Cc1cc(-n2ccn(-c3c4c(nn3-c3cc(C)c(F)c(C)c3)CCN(C(=O)c3cc5cc(C6CCOCC6)ccc5n3[C@@]3(c5noc(=O)[nH]5)C[C@@H]3C)[C@H]4C)c2=O)ccc1-c1cc(N(C)C)ncn1` [Example 25, 3-[(1S,2S)-1-[2-[(4S)-3-[3-[4-[6-(dimethylamino)pyrimidin-4-yl]-3-methylphenyl]-2-oxoimidazol-1-yl]-2-(4-fluoro-3,5-dimethylphenyl)-4-methyl-6,7-dihydro-4H-pyrazolo[4,3-c]pyridine-5-carbonyl]-5-(oxan-4-yl)indol-1-yl]-2-methylcyclopropyl]-4H-1,2,4-oxadiazol-5-one] registered an EC50 of 4 nM. This EC50 lies about 1.6-fold higher than the previous one.

For the compound `Cc1cc(-n2nc3c(c2-n2ccn(-c4ccc5c(cnn5CCF)c4)c2=O)[C@H](C)N(C(=O)c2cc4cc(C5CCOCC5)ccc4n2[C@@]2(c4noc(=O)[nH]4)C[C@@H]2C)CC3)cc(C)c1F` [Example 26, 3-[(1S,2S)-1-[2-[(4S)-2-(4-fluoro-3,5-dimethylphenyl)-3-[3-[1-(2-fluoroethyl)indazol-5-yl]-2-oxoimidazol-1-yl]-4-methyl-6,7-dihydro-4H-pyrazolo[4,3-c]pyridine-5-carbonyl]-5-(oxan-4-yl)indol-1-yl]-2-methylcyclopropyl]-4H-1,2,4-oxadiazol-5-one], the EC50 is 0.77 nM.

Turning to `Cc1cc(-n2nc3c(c2-n2ccn(-c4cc5cnn(C)c5cc4F)c2=O)[C@H](C)N(C(=O)c2cc4cc(C5CCOCC5)ccc4n2[C@@]2(c4noc(=O)[nH]4)C[C@@H]2C)CC3)cc(C)c1F` [Example 27, 3-[(1S,2S)-1-[2-[(4S)-2-(4-fluoro-3,5-dimethylphenyl)-3-[3-(6-fluoro-1-methylindazol-5-yl)-2-oxoimidazol-1-yl]-4-methyl-6,7-dihydro-4H-pyrazolo[4,3-c]pyridine-5-carbonyl]-5-(oxan-4-yl)indol-1-yl]-2-methylcyclopropyl]-4H-1,2,4-oxadiazol-5-one], the response was half-maximal at 2.3 nM (EC50).

`Cc1cc(-n2nc3c(c2-n2ccn(-c4ccc5c(cnn5CC(F)(F)F)c4F)c2=O)[C@H](C)N(C(=O)c2cc4cc(C5CCOCC5)ccc4n2[C@@]2(c4noc(=O)[nH]4)C[C@@H]2C)CC3)cc(C)c1F` [Example 28, 3-[(1S,2S)-1-[2-[(4S)-2-(4-fluoro-3,5-dimethylphenyl)-3-[3-[4-fluoro-1-(2,2,2-trifluoroethyl)indazol-5-yl]-2-oxoimidazol-1-yl]-4-methyl-6,7-dihydro-4H-pyrazolo[4,3-c]pyridine-5-carbonyl]-5-(oxan-4-yl)indol-1-yl]-2-methylcyclopropyl]-4H-1,2,4-oxadiazol-5-one] yielded an EC50 of 1.9 nM.
